Results reported in patent US20170267667A1, “[…] AS NON-NUCLEOSIDE REVERSE TRANSCRIPTASE INHIBITORS FOR ANTI-HIV-1 CHEMOTHERAPY” (Purdue Research Foundation, priority 2016, published 2017).

Columns and labels:
[1] = Cytotoxicity for mock-infected MT-4 cells; type: cell-based; conditions: human
Procedure: (§1) In Vitro Antiviral Assay. Evaluation of the antiviral activity of compounds against HIV- 1RF infection in CEM-SS cells was performed using the XTT cytoprotection assay, as previously described (Buckheit, R. W. Jr., et al., Antiviral Res. 1995, 26, 117-132). Evaluation of the antiviral activity of compounds against HIV-1IIIB and HIV-2ROD in MT-4 cells was performed using the MTT assay, as previously described (Rice, W. G. and Bader, J. P., Adv. Pharmacol. (San Diego) 1995, 33, 389-438).
(§2) Biological Results. The antiviral activities of the ADAMs were evaluated by determining their ability to inhibit the enzymatic activity of HIV-1 RT in vitro (IC50) and protect HIV-infected cells from the cytopathic effects (EC50) of two viral strains (HIV-1RF and HIV-1IIIB). The cytotoxicities (CC50) of the ADAMs were determined on CEM-SS cells and MT-4 cells.

[2] = test system: HIV-1RF; test: XTT cytoprotection assay, HIV-1RF infection in CEM-SS cells; type: cell-based; conditions: for SI (CC50/EC50) CEM-SS cells: CC50/EC50 ratio, HIV-1RF in CEM-SS cells; for EC50: Human immunodeficiency virus 1, inhibition of cytopathicity of HIV-1RF in CEM-SS cells
Procedure: as §1

[3] = test system: HIV-1IIIB; test: MTT assay, HIV-1IIIB in MT-4 cells; type: cell-based; conditions: for SI (CC50/EC50) MT-4 cells: CC50/EC50 ratio, HIV-1IIIB in MT-4 cells; for EC50: Human immunodeficiency virus 1, MT4, inhibition of cytopathicity of HIV-1IIIB in MT-4 cells
Procedure: as §1

[4] = molecular target: HIV-1 reverse transcriptase (Human immunodeficiency virus type 1 group M subtype B, UniProt P04585); test: RT inhibition assay, incorporation of [32P]GTP into poly(rC)/oligo(dG) template primer; type: biochemical; conditions: poly(rC):oligo(dG) as the template primer; mean of at least two experiments; read-out: IC50 inhibitory activity versus HIV-1 reverse transcriptase
Procedure: RT Inhibition Assay. Inhibition of purified recombinant reverse transcriptase was measured by the incorporation of [^32P]GTP into poly(rC)/oligo(dG) homopolymer template primers, as previously described (Cushman, M., et al., J. Med. Chem. 1996, 39, 3217-3227).

[5] = Cytotoxicity for mock-infected CEM-SS cells; type: cell-based; conditions: human
Procedure: as §1, §2

In the case of `CON=C(F)c1cc(/C(=C\CCCc2nnc(C)o2)c2cc(C)c3oc(=O)n(C)c3c2)cc(C)c1OC` [ADAM 5, 5-[(1E)-1-(3,7-Dimethyl-2-oxo-2,3-dihydro-1,3-benzoxazol-5-yl)-5-(5-methyl-1,3,4-oxadiazol-2-yl)pent-1-en-1-yl]-N,2-dimethoxy-3-methylbenzenecarboximidoyl Fluoride], the CC50 [1] is reported as 26.5 µM, the “SI (CC50/EC50) CEM-SS cells” value [2] is reported as 13 and the EC50 [2] is reported as 500 nM. The “SI (CC50/EC50) MT-4 cells” value [3] was 76, the EC50 [3] was 350 nM and the IC50 [4] was 3.4 µM. It also gave a CC50 [5] of 6.5 µM.

In the case of `CON=C(F)c1cc(/C(=C\CCCN2CCOC2=O)c2cc(C)c3onc(OC)c3c2)cc(C)c1OC` [ADAM 9, N,2-Dimethoxy-5-[(1Z)-1-(3-methoxy-7-methyl-1,2-benzoxazol-5-yl)-5-(2-oxo-1,3-oxazolidin-3-yl)pent-1-en-1-yl]-3-methylbenzenecarboximidoyl Fluoride], the CC50 [1] is reported as 26.1 µM, the EC50 [2] is reported as > 100000 nM and the EC50 [3] is reported as > 26100 nM. The IC50 [4] was 46.7 µM and the CC50 [5] was 17.8 µM.

For `CON=C(Cl)c1cc(/C(=C\CCCc2nc(C)no2)c2cc(C)c3oc(=O)n(C)c3c2)cc(C)c1OC` [ADAM 17, 5-[(1E)-1-(3,7-Dimethyl-2-oxo-2,3-dihydro-1,3-benzoxazol-5-yl)-5-(3-methyl-1,2,4-oxadiazol-5-yl)pent-1-en-1-yl]-N,2-dimethoxy-3-methylbenzenecarboximidoyl Chloride], the CC50 [1] was 29.4 µM, the “SI (CC50/EC50) CEM-SS cells” value [2] was 5 and the EC50 [2] was 510 nM. The “SI (CC50/EC50) MT-4 cells” value [3] was 59, the EC50 [3] was 500 nM and the IC50 [4] was 4.19 µM. The CC50 [5] was 2.37 µM.

For `CON=C(F)c1cc(/C(=C\CCCc2nnc(C)o2)c2cccc(C#N)c2)cc(C)c1OC` [ADAM 10, 5-[(1Z)-1-(3-Cyanophenyl)-5-(5-methyl-1,3,4-oxadiazol-2-yl)pent-1-en-1-yl]-N,2-dimethoxy-3-methylbenzenecarboximidoyl Fluoride], the CC50 [1] was 1.07 µM, the EC50 [2] was > 100000 nM and the EC50 [3] was > 1090 nM. It also gave an IC50 [4] of 37.1 µM and a CC50 [5] of 1.8 µM.

With `CON=C(F)c1cc(/C(=C\CCCc2nc(C)no2)c2cc(C)c3onc(OC)c3c2)cc(C)c1OC` [ADAM 8, N,2-Dimethoxy-5-[(1Z)-1-(3-methoxy-7-methyl-1,2-benzoxazol-5-yl)-5-(3-methyl-1,2,4-oxadiazol-5-yl)pent-1-en-1-yl]-3-methylbenzenecarboximidoyl Fluoride] the CC50 [1] was 9.66 µM, the “SI (CC50/EC50) CEM-SS cells” value [2] was 3 and the EC50 [2] was 2040 nM. For the same molecule, the “SI (CC50/EC50) MT-4 cells” value [3] was 2, the EC50 [3] was 4070 nM and the IC50 [4] was 1.85 µM. For the same molecule, the CC50 [5] was 5.39 µM.

For `CON=C(F)c1cc(/C(=C\CCCN2CCOC2=O)c2ccc(C#N)cc2)cc(C)c1OC` [ADAM 15, 5-[(1Z)-1-(4-Cyanophenyl)-5-(2-oxo-1,3-oxazolidin-3-yl)pent-1-en-1-yl]-N,2-dimethoxy-3-methylbenzenecarboximidoyl Fluoride], the CC50 [1] was 21.1 µM, the EC50 [2] was > 100000 nM and the EC50 [3] was > 21100 nM. The IC50 [4] was > 100 µM and the CC50 [5] was 6.7 µM.

In the case of `CON=C(F)c1cc(/C(=C\CCCc2nnc(C)o2)c2cc(C)c3onc(OC)c3c2)cc(C)c1OC` [ADAM 7, N,2-Dimethoxy-5-[(1Z)-1-(3-methoxy-7-methyl-1,2-benzoxazol-5-yl)-5-(5-methyl-1,3,4-oxadiazol-2-yl)pent-1-en-1-yl]-3-methylbenzenecarboximidoyl Fluoride], the CC50 [1] is reported as 15.8 µM, the “SI (CC50/EC50) CEM-SS cells” value [2] is reported as 7 and the EC50 [2] is reported as 1900 nM. For the same molecule, the “SI (CC50/EC50) MT-4 cells” value [3] was 6, the EC50 [3] was 2860 nM and the IC50 [4] was 1.4 µM. It also gave a CC50 [5] of 13.9 µM.
